Each structure is given as a SMILES string. Where two headings read alike, the source gives them in different places.

The test system of experiment [1] is Klebsiella aerogenes (SH 1082). The experiment can be described thus: MIC in broth, Gram- strains. To be noted: 18 h, read-out: Minimal Inhibitory Concentration (MIC). The experiment is classed as cell-based. The method in brief: (§1)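 Broth microdilution with serial two-fold dilutions in Mueller-Hinton broth. Inoculum from overnight culture matched to 0.5 McFarland and adjusted to 5.0×10^4 CFU/ml final; plates incubated 18 h at 37 °C in humidified conditions.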

The test system of experiment [2] is Klebsiella pneumoniae (7823). The experiment can be described thus: MIC in broth, Gram- strains. The experiment is classed as cell-based. The following applies: 18 h, read-out: Minimal Inhibitory Concentration (MIC). The method in brief:
as §1

Experiment [3] deals with Pseudomonas aeruginosa (10 E). The experiment can be described thus: MIC in broth, Gram- strains. The class given is cell-based. The following applies: 18 h, read-out: Minimal Inhibitory Concentration (MIC). The method in brief:
as §1

The test system of experiment [4] is Helicobacter pylori NCTC 11637. The experiment is described as follows: MIC in agar (agar dilution). To be noted: for MIC: Helicobacter pylori, NCTC11637. The class given is cell-based. The method, then: In this experiment the activity of ST 722 and ST 712 against Campylobacter and Helicobacter was investigated.
Campylobacter fetus ATCC 27374, Campylobacter coli LI 048, Campylobacter jejuni 84-ISS, and Helicobacter pylori NCTC 11637.
The culture medium was Columbia agar base supplemented with 7% (V/V) defribinated horse blood (DHB) for Campylobacter strains, and the same medium additioned with Vitox (Oxoid) for Helicobacter strain.
The Campylobacter and Helicobacter strains, preserved at -80° C. in DHB containing 10% (V/V) glycerol, were thawed and grown, in their respective culture medium, in culture flasks, which were incubated for 48 hours at 37° C. in a 10% CO2 atmosphere. After this first growth cycle, the bacteria were allowed to go through a second growth cycle in the same conditions as above.
The bacterial "patina" was then harvested by resuspension in 4-5 ml of Mueller-Hinton broth, the turbidity of which was then assessed according to Mc Farland's criteria (BRAY W. E., Clinical Laboratory Methods, 5th Ed. C. V. MOSBY, St. Louis, Mo. 1957). […]
With a Steers-type multipoint inoculator (STEERS E., FOLTZ E. L., GRAVES S., RIDEN J., 1959. Inocula-replicating apparatus for routine testing of antibacterial susceptibility to antibiotics. Antibiot. Chemoter. 9: 307-311) 1-μl volumes of the above standardized suspensions were spot-transferred into the wells of a 96-well microtiter plate, which had previously been filled with 0.2 ml/well of Mueller-Hinton agar 5% DHB, containing the test substances at different concentrations.
The plates was then incubated for 48/72 hours at 37° C. in a 10% CO2 atmosphere.

Experiment [5] concerns H. pylori planktonic cells (NCTC 11637). The experiment is described as follows: Bactericidal effect against H. pylori planktonic cells. The experiment is classed as cell-based, Helicobacter pylori. The text has this:
The investigation aimed at evaluating the difference in susceptibility to ST 722 of planktonic and sessile Helicobacter cells, using in the latter case an "in vitro" experimental model, which closely resembled the clinical condition occurring "in vivo" in type-B gastritis. We used HEp-2 cells, an epithelial cell line which harbors the same membrane glycolipid receptors for H. pylori as those harbored by the mucous cells of the antral gastric mucosa (MEGRAUD, F., TRIMOULET, P., LAMOULIATTE, H. and BOYANOVA, L., 1991. Bacterial effect of Amoxicillin on "H. pylori" in an in vitro model using epithelial cells. Antimicrob. Agents Chemoter. 35 (5): 869-872 and LINGWOOD, C. A., LAW, H. and PELLIZANI, A., 1989. Gastric glycerolipid as a receptor for Campylobacter pylori. Lancet i: 238-241). Additionally, the viability of HEp-2 cells (either infected or not) was evaluated following "in vitro" ST 722 treatment. The degree of cytotoxicity was assessed by cytofiuorimetric analysis of Propidium Iodine-stained HEp-2 cells.
Helicobacter pylori NCTC 11637.
The antibacterial and cytotoxic activity of ST 722 against Helicobacter and HEp-2 cells, respectively, was evaluated by using 3 different ST 722 concentrations, namely 0.1, 1.56 (i.e. the MIC value vs. H. pylori NCTC 11637) and 4 mcg/ml.
After making geometric dilutions of the suspensions (0.1 ml of each dilution inoculated onto each plate in triplicate), the plates were incubated for 7 days in a microaerobic atmosphere, and the plates with 30 to 200 CFU were counted.
The ST 722 activity against Helicobacter planktonic cells was determined in the same experimental conditions in the absence of HEp-2 cells. Finally, the results are expressed as CFU per flask of each sample with respect to the relevant control (i.e. sessile or planktonic cultures).

Regarding `CCCCCCCCCCCOC(=O)CC(C[N+](C)(C)C)OC(=O)CC(C)C` [ST 722, Isovaleryl-L-Carnitine Undecyl Ester Chloride], the MIC was found to be 25 µg/mL in experiment [1]; 12.5 µg/mL in experiment [2]; 50 µg/mL in experiment [3]; 1.56 µg/mL in experiment [4] (I = inoculum of 1.0 × 10^5 cells/ml, read-out: MIC in agar); 1.56 µg/mL in experiment [4] (agar medium, inoculum not given, read-out: MIC vs. H. pylori NCTC 11637). This molecule had an MIC in agar in experiment [4] (II = inoculum of 1.0 × 10^6 cells/ml) of 1.56 µg/mL. Further, the “antibacterial activity for Helicobacter and Campylobacter” value in experiment [4] (agar, Helicobacter and Campylobacter strains) is given as “possess an antibacterial activity”. The “Planktonic cells (CFU per flask)” value is listed as 9.50 × 10^5 CFU per flask in experiment [5] (3-h contact, 0.1 mcg/ml); 3.50 × 10^5 CFU per flask in experiment [5] (3-h contact, 1.56 mcg/ml); 1.00 × 10^5 CFU per flask in experiment [5] (3-h contact, 4.0 mcg/ml); 9.00 × 10^7 CFU per flask in experiment [5] (24-h contact, 0.1 mcg/ml); 4.05 × 10^6 CFU per flask in experiment [5] (24-h contact, 1.56 mcg/ml); 1.85×10^6 CFU per flask in experiment [5] (24-h contact, 4.0 mcg/ml, control 5.35 × 10^8). Moreover, the complete medium sterilization result in experiment [5] (planktonic cells) is on record as “a complete medium sterilization was not attained”.
